Reference: PMC7181051, “Probing the Protein-Protein Interaction between the ATRXADD Domain and the Histone H3 Tail” (Molecules, 2020)
Where two headings read alike, the source gives them in different places. Where a SMILES comes first, the peptide text is derived from it. [ ]: non-standard residue; d: D form. Lys(Me3) = C[N+](C)(C)CCCC[C@H](N)C(=O)O

Target: T1, ATRXADD (Homo sapiens, UniProt P46100)
T1 construct: The pGEX-GP-2-ATRX ADD plasmid (Addgene plasmid #59698) [17] was transformed into BL21 cells for expression and purification; GST (N, cleaved yes); peptides GenScript #59698; host or cells: E. coli BL21
T1 sequence (P46100 159-296 limits assumed): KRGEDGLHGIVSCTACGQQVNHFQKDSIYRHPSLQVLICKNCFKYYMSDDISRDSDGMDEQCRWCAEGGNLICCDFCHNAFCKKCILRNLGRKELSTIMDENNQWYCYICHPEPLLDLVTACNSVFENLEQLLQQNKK
Assay: Fluorescence polarization (FP) displacement assay
Assay type: binding
Details: for disruption of the H3:ATRXADD PPI in the FP assay, in words: truncated and modified H3 peptides

[1] = disruption of H3_1-15K9me3-FAM (0.75 µM):ATRXADD (5 µM) PPI, PBS, highest concentration tested 100 µM, ND = no displacement, read-out: FP Assay IC50

Structure (SMILES) | disruption of the H3:ATRXADD PPI in the FP assay, in words | IC50 [1] [µM] | IC50 [µM]
C[C@H](N)C(=O)N[C@@H](CCCNC(=N)N)C(=O)N[C@H](C(=O)N[C@@H](CCCC[N+](C)(C)C)C(=O)N[C@@H](CCC(N)=O)C(=O)N[C@H](C(=O)N[C@@H](C)C(=O)N[C@@H](CCCNC(=N)N)C(=O)N[C@@H](CCCC[N+](C)(C)C)C(=O)N[C@@H](CO)C(=O)N[C@H](C(=O)O)[C@@H](C)O)[C@@H](C)O)[C@@H](C)O [H3_1-11K4me3K9me3] | significantly reduced the activity | ≥ 100 | –
C[C@H](NC(=O)[C@@H](NC(=O)[C@H](CCC(N)=O)NC(=O)[C@H](CCCC[N+](C)(C)C)NC(=O)[C@@H](N)[C@@H](C)O)[C@@H](C)O)C(=O)N[C@@H](CCCNC(=N)N)C(=O)N[C@@H](CCCC[N+](C)(C)C)C(=O)N[C@@H](CO)C(=O)O [H3_3-10K4me3K9me3] (H-T[Lys(Me3)]QTAR[Lys(Me3)]S-OH; N-terminus and C-terminus assumed) | – | > 100 | –
C[C@H](N)C(=O)N[C@@H](CCCNC(=N)N)C(=O)N[C@H](C(=O)N[C@@H](CCCC[N+](C)(C)C)C(=O)N[C@@H](CCC(N)=O)C(=O)N[C@H](C(=O)N[C@@H](C)C(=O)O)[C@@H](C)O)[C@@H](C)O [Peptide H3_1-7K4me3] (H-ART[Lys(Me3)]QTA-OH) | – | – | > 100
C[C@@H](O)[C@H](NC(=O)[C@H](CCC(N)=O)NC(=O)[C@H](CCCCN)NC(=O)[C@@H](NC(=O)[C@@H](N)CCCNC(=N)N)[C@@H](C)O)C(=O)O [Peptide H3_2-6] (H-RTKQT-OH; N-terminus and C-terminus assumed) | inactive | – | > 100
C[C@@H](O)[C@H](N)C(=O)N[C@@H](CCCCN)C(=O)N[C@@H](CCC(N)=O)C(=O)O [Peptide H3_3-5] (H-Thr-Lys-Gln-OH; N-terminus and C-terminus assumed) | inactive | > 100 | –
C[C@H](NC(=O)[C@@H](NC(=O)[C@H](CCC(N)=O)NC(=O)[C@H](CCCCN)NC(=O)[C@@H](N)[C@@H](C)O)[C@@H](C)O)C(=O)N[C@@H](CCCNC(=N)N)C(=O)O [Peptide H3_3-8] (H-TKQTAR-OH; N-terminus and C-terminus assumed) | inactive | – | > 100
C[C@H](NC(=O)[C@@H](NC(=O)[C@H](CCC(N)=O)NC(=O)[C@H](CCCCN)NC(=O)[C@@H](N)[C@@H](C)O)[C@@H](C)O)C(=O)N[C@@H](CCCNC(=N)N)C(=O)N[C@@H](CCCC[N+](C)(C)C)C(=O)N[C@@H](CO)C(=O)N[C@H](C(=O)O)[C@@H](C)O [Peptide H3_3-11K9me3] (H-TKQTAR[Lys(Me3)]ST-OH; N-terminus and C-terminus assumed) | completely abolished activity | > 100 | –
C[C@H](N)C(=O)N[C@@H](CCCNC(=N)N)C(=O)N[C@@H](CCCC[N+](C)(C)C)C(=O)N[C@@H](CO)C(=O)N[C@H](C(=O)O)[C@@H](C)O [Peptide H3_7-11K9me3] (H-AR[Lys(Me3)]ST-OH; N-terminus and C-terminus assumed) | inactive | – | > 100
